Values of other authors as cited in patent US8455021B2, “Composition for prophylaxis or treatment of urinary system infection and method thereof” (priority 2006, dated 2013).

Assays:
MMP-2 = settings: Yu Cai et al., J pharm Pharmacol. 2003
MMP-9 = MMP-9 (Homo sapiens, UniProt P14780); settings: Yu Cai et al., J pharm Pharmacol. 2003
MMP-9, sequence (P14780 94-707, species assumed): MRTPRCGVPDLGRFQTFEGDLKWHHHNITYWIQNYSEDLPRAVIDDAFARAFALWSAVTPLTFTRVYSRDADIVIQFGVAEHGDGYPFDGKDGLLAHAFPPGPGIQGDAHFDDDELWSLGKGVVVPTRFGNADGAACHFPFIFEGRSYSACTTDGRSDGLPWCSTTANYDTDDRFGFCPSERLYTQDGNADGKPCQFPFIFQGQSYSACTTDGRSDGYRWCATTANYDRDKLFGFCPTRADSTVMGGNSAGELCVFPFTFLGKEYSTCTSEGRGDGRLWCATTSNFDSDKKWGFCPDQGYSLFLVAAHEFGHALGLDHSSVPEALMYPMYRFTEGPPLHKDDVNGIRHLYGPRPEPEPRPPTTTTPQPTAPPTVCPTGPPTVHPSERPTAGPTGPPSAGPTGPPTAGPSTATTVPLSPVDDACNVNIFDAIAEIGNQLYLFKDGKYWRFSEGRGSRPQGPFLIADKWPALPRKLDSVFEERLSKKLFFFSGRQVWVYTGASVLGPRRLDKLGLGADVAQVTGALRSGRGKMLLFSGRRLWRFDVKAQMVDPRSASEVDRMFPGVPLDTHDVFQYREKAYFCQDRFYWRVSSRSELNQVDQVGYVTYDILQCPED

C[C@@H]1O[C@@H](O[C@H]2C(=O)c3c(O)cc(O)cc3O[C@@H]2c2ccc(O)c(O)c2)[C@H](O)[C@H](O)[C@H]1O [astilbin]
activity of matrix metalloproteinase MMP-2 (MMP-2): inhibits the activity | activity of matrix metalloproteinase MMP-9 (MMP-9): inhibits the activity
